Target: T1, human PAH with the R408W mutation (Homo sapiens, UniProt P00439, R408W)
T1 construct: expressed in transfected cells
T1 sequence (P00439 1-452 R408W): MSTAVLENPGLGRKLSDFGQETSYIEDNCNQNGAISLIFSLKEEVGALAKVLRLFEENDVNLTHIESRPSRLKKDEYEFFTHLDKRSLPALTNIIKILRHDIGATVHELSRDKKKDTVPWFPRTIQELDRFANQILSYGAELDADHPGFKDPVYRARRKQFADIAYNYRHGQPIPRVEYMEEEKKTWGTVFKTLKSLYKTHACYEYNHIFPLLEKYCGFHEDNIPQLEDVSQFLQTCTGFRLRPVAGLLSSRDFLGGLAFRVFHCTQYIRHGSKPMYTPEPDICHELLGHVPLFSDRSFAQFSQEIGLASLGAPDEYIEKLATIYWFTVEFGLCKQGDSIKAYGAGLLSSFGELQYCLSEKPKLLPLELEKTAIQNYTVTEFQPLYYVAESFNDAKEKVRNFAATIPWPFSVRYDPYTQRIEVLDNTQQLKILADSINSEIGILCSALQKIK
Experiment: Cell Based Phenylalanine Flux Assay;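 further: after compound treatment, cells received sepiapterin plus isotope-labelled Phenylalanine for 4 hours, then labelled Tyrosine in the medium was quantified, 10-point 2-fold dilution series run in duplicate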
Conditions: A375 cells expressing R408W PAH; 24 hrs with compound, then 20 µM sepiapterin and 800 µM 13C9,15N-Phenylalanine for 4 hours; 13C-Tyrosine by LC-MS; average where tested multiple times; read-out: AC50

Row | SMILES | AC50
1 | Cn1ccc(-c2ncc(C(=O)N3CCc4[nH]cnc4C3c3cc4ccccn4n3)o2)n1 (stereo not shown) | > 5 µM
2 | Cc1c(-c2ncc(C(=O)N3CCc4[nH]cnc4C3c3cc4ccccn4n3)o2)cnn1C (stereo not shown) | > 5 µM
3 | Cc1cccn2nc(C3c4nc[nH]c4CCN3C(=O)c3nnc(-c4cn[nH]c4)o3)cc12 (stereo not shown) [listing 1 of 2 here] | > 5 µM
4 | O=C(c1cnc(-c2ncccn2)o1)N1CCc2[nH]cnc2C1c1cc2c(F)cccn2n1 (stereo not shown) [listing 1 of 2 here] | > 5 µM
5 | O=C(c1nnc(-c2ccc(C(F)(F)F)cn2)o1)N1CCc2[nH]cnc2C1c1cc2ccccn2n1 (stereo not shown) | > 5 µM
6 | COc1cccn2nc(C3c4nc[nH]c4CCN3C(=O)c3cnn4cc(N(C)C)ccc34)cc12 (stereo not shown) [listing 1 of 2 here] | > 5 µM
7 | c1cc(C2CC2)c2cc(C3c4nc[nH]c4CCN3c3nnc(-c4ccncn4)o3)nn2c1 (stereo not shown) | > 5 µM
8 | Cc1cccn2nc(C3c4nc[nH]c4CCN3c3nnc(-c4ccncn4)o3)cc12 (stereo not shown) [listing 1 of 2 here] | > 5 µM
9 | Cn1cc(-c2nc(C3CC3)c(C(=O)N3CCc4[nH]cnc4C3c3cc4ccccn4n3)o2)cn1 (stereo not shown) [listing 1 of 2 here] | > 5 µM
10 | Cn1cc(-c2ncc(C(=O)N3CCc4[nH]cnc4C3c3cc4c(F)cccn4n3)o2)cn1 (stereo not shown) [listing 1 of 2 here] | > 5 µM
11 | Cn1ncc(C(=O)N2CCc3[nH]cnc3C2c2cc3ccccn3n2)c1C(F)F (stereo not shown) | 1 to 5 µM
12 | Cc1ccc2c(C(=O)N3CCc4[nH]cnc4C3c3cc4cccc(Cl)n4n3)cnn2c1 (stereo not shown) [listing 1 of 2 here] | > 5 µM
13 | Cc1ccc2c(C(=O)N3CCc4[nH]cnc4C3c3cc4cccc(C)n4n3)cnn2c1 (stereo not shown) [listing 1 of 2 here] | > 5 µM
14 | CN(C)CCc1ccc2c(C(=O)N3CCc4[nH]cnc4C3c3cc4cccc(C(F)(F)F)n4n3)cnn2c1 (stereo not shown) [listing 1 of 2 here] | > 5 µM
15 | Cn1ncnc1C(=O)N1CCc2[nH]cnc2C1c1cc2ccccn2n1 (stereo not shown) | 1 to 5 µM
16 | Cn1cc(-c2ncc(C(=O)N3CCc4[nH]cnc4C3c3cc4ccccn4n3)o2)cn1 (stereo not shown) | 1 to 5 µM
17 | CC1(c2nnc(N3CCc4[nH]cnc4C3c3cc4c(C(F)(F)F)cccn4n3)o2)CC1 (stereo not shown) | 1 to 5 µM
18 | O=C(c1nnc(-c2cn[nH]c2)o1)N1CCc2[nH]cnc2C1c1cc2ccccn2n1 (stereo not shown) | 1 to 5 µM
19 | O=C(C1CN(c2ccccn2)C1)N1CCc2[nH]cnc2C1c1cc2ccccn2n1 (stereo not shown) | 1 to 5 µM
20 | Cn1cc(-c2nnc(N3CCc4[nH]cnc4C3c3cc4c(C(F)F)cccn4n3)o2)cn1 (stereo not shown) | > 5 µM
21 | O=C(c1nc2ccccc2s1)N1CCc2[nH]cnc2C1c1cc2c(C(F)(F)F)cccn2n1 (stereo not shown) | 1 to 5 µM

Row | SMILES | AC50
22 | O=C(c1ncco1)N1CCc2[nH]cnc2C1c1cc2c(F)cccn2n1 (stereo not shown) | 1 to 5 µM
23 | Cc1nnc(C(=O)N2CCc3[nH]cnc3C2c2cc3c(F)cccn3n2)s1 (stereo not shown) | 1 to 5 µM
24 | Cc1cccn2nc(C3c4nc[nH]c4CCN3C(=O)c3nnc(-c4cn[nH]c4)o3)cc12 (stereo not shown) [listing 2 of 2 here] | 1 to 5 µM
25 | Nc1cnc(N2CCc3[nH]cnc3C2c2cc3ccccn3n2)nc1 (stereo not shown) | > 5 µM
26 | O=C(c1nccs1)N1CCc2[nH]cnc2C1c1cc2ccccn2n1 (stereo not shown) | 1 to 5 µM
27 | O=C(c1ncco1)N1CCc2[nH]cnc2C1c1cc2ccccn2n1 (stereo not shown) | 1 to 5 µM
28 | FC(F)c1cccn2nc(C3c4nc[nH]c4CCN3c3nnc(-c4cnccn4)o3)cc12 (stereo not shown) | 1 to 5 µM
29 | O=C(c1cnc(-c2ncccn2)o1)N1CCc2[nH]cnc2C1c1cc2c(C(F)F)cccn2n1 (stereo not shown) | > 5 µM
30 | O=C(c1cnc(-c2ncccn2)o1)N1CCc2[nH]cnc2C1c1cc2c(C(F)(F)F)cccn2n1 (stereo not shown) | 1 to 5 µM
31 | c1cc(C2CC2)c2cc(C3c4nc[nH]c4CCN3c3nnc(-c4cnccn4)o3)nn2c1 (stereo not shown) | 1 to 5 µM
32 | O=C(c1cnc(-c2ncccn2)o1)N1CCc2[nH]cnc2C1c1cc2c(F)cccn2n1 (stereo not shown) [listing 2 of 2 here] | > 5 µM
33 | Cc1cccn2nc(C3c4nc[nH]c4CCN3C(=O)c3cnc(-c4ncccn4)o3)cc12 (stereo not shown) | 1 to 5 µM
34 | COCc1nnc(C(=O)N2CCc3[nH]cnc3C2c2cc3ccccn3n2)o1 (stereo not shown) | 1 to 5 µM
35 | Cc1nnc(C(=O)N2CCc3[nH]cnc3C2c2cc3ccccn3n2)s1 (stereo not shown) | 1 to 5 µM
36 | COc1cccn2nc(C3c4nc[nH]c4CCN3C(=O)c3cnn4cc(N(C)C)ccc34)cc12 (stereo not shown) [listing 2 of 2 here] | 1 to 5 µM
37 | CN(C)c1ccc2c(C(=O)N3CCc4[nH]cnc4C3c3cc4cccc(C(F)F)n4n3)cnn2c1 (stereo not shown) | 1 to 5 µM
38 | CN(C)c1ccc2c(C(=O)N3CCc4[nH]cnc4C3c3cc4cccc(F)n4n3)cnn2c1 (stereo not shown) | 1 to 5 µM
39 | FC(F)c1cccn2nc(C3c4nc[nH]c4CCN3c3nnc(-c4cccnn4)o3)cc12 (stereo not shown) | 1 to 5 µM
40 | FC(F)(F)c1cccn2nc(C3c4nc[nH]c4CCN3c3nnc(-c4cccnn4)o3)cc12 (stereo not shown) | 1 to 5 µM
41 | Cc1cccn2nc(C3c4nc[nH]c4CCN3c3nnc(-c4cccnn4)o3)cc12 (stereo not shown) | 1 to 5 µM
42 | Cc1nnc(CCC(=O)N2CCc3[nH]cnc3C2c2cc3ccccn3n2)s1 (stereo not shown) | > 5 µM

Row | SMILES | AC50
43 | Cn1nc(C(F)F)cc1C(=O)N1CCc2[nH]cnc2C1c1cc2ccccn2n1 (stereo not shown) | 1 to 5 µM
44 | FC(F)c1cccn2nc(C3c4nc[nH]c4CCN3c3nnc(N4CCOCC4)o3)cc12 (stereo not shown) | > 5 µM
45 | Cc1cccn2nc(C3c4nc[nH]c4CCN3c3nnc(-c4ccncn4)o3)cc12 (stereo not shown) [listing 2 of 2 here] | 1 to 5 µM
46 | Cn1cc(-c2nc(C3CC3)c(C(=O)N3CCc4[nH]cnc4C3c3cc4ccccn4n3)o2)cn1 (stereo not shown) [listing 2 of 2 here] | 1 to 5 µM
47 | O=C(c1ocnc1C1CC1)N1CCc2[nH]cnc2C1c1cc2cccc(C(F)(F)F)n2n1 (stereo not shown) | 1 to 5 µM
48 | Cn1ccc(-c2ncc(C(=O)N3CCc4[nH]cnc4C3c3cc4c(C(F)F)cccn4n3)o2)n1 (stereo not shown) | 1 to 5 µM
49 | Cn1cc(-c2ncc(C(=O)N3CCc4[nH]cnc4C3c3cc4c(C(F)F)cccn4n3)o2)cn1 (stereo not shown) | 1 to 5 µM
50 | Cn1cc(-c2ncc(C(=O)N3CCc4[nH]cnc4C3c3cc4c(F)cccn4n3)o2)cn1 (stereo not shown) [listing 2 of 2 here] | 1 to 5 µM
51 | COCCc1ccc2c(C(=O)N3CCc4[nH]cnc4C3c3cc4cccc(C(F)(F)F)n4n3)cnn2c1 (stereo not shown) | 1 to 5 µM
52 | COCCc1ccc2c(C(=O)N3CCc4[nH]cnc4C3c3cc4ccccn4n3)cnn2c1 (stereo not shown) | > 5 µM
53 | Cc1cccn2nc(C3c4nc[nH]c4CCN3C(=O)C3CCC3)cc12 (stereo not shown) | > 5 µM
54 | O=C(C1CCC1)N1CCc2[nH]cnc2C1c1cc2ccccn2n1 (stereo not shown) | > 5 µM
55 | Nc1ccc(N2CCc3[nH]cnc3C2c2cc3c(C(F)F)cccn3n2)nc1 (stereo not shown) | 1 to 5 µM
56 | Nc1ccc(N2CCc3[nH]cnc3C2c2cc3ccccn3n2)nc1 (stereo not shown) | > 5 µM
57 | Cc1ccc2c(C(=O)N3CCc4[nH]cnc4C3c3cc4cccc(C)n4n3)cnn2c1 (stereo not shown) [listing 2 of 2 here] | 1 to 5 µM
58 | CN(C)CCc1ccc2c(C(=O)N3CCc4[nH]cnc4C3c3cc4c(F)cccn4n3)cnn2c1 (stereo not shown) | 1 to 5 µM
59 | Cc1cccn2nc(C3c4nc[nH]c4CCN3C(=O)c3cnn4cc(CCN(C)C)ccc34)cc12 (stereo not shown) | 1 to 5 µM
60 | CN(C)CCc1ccc2c(C(=O)N3CCc4[nH]cnc4C3c3cc4cccc(C(F)(F)F)n4n3)cnn2c1 (stereo not shown) [listing 2 of 2 here] | 1 to 5 µM
61 | CN(C)Cc1nnc(C(=O)N2CCc3[nH]cnc3C2c2cc3ccccn3n2)o1 (stereo not shown) | > 5 µM

Results, then the compound that gave them:

Row | AC50 | SMILES
62 | > 5 µM | Cc1cccc2cc(C3c4nc[nH]c4CCN3c3nnc(C4CCC4)o3)nn12 (stereo not shown)
63 | > 5 µM | c1cncc(-c2nnc(N3CCc4[nH]cnc4C3c3cc4ccccn4n3)o2)c1 (stereo not shown) [listing 1 of 2 here]
64 | > 5 µM | c1ccn2nc(C3c4nc[nH]c4CCN3c3nnc(-c4ccncn4)o3)cc2c1 (stereo not shown) [listing 1 of 2 here]
65 | > 5 µM | CC(C)(F)c1nnc(N2CCc3[nH]cnc3C2c2cc3c(C(F)(F)F)cccn3n2)o1 (stereo not shown)
66 | > 5 µM | Cc1cccn2nc(C3c4nc[nH]c4CCN3c3nnc(C(C)(C)F)o3)cc12 (stereo not shown)
67 | 1 to 5 µM | Cc1nnc(N2CCc3[nH]cnc3C2c2cc3c(OC(F)F)cccn3n2)o1 (stereo not shown)
68 | > 5 µM | CC(C)(F)c1nnc(N2CCc3[nH]cnc3C2c2cc3c(C(F)F)cccn3n2)o1 (stereo not shown)
69 | > 5 µM | Nc1cnc(N2CCc3[nH]cnc3C2c2cc3cccc(C(F)(F)F)n3n2)nc1 (stereo not shown)
70 | 1 to 5 µM | FC(F)c1nnc(N2CCc3[nH]cnc3C2c2cc3cccc(Cl)n3n2)o1 (stereo not shown)
71 | 1 to 5 µM | Nc1cnc(N2CCc3[nH]cnc3C2c2cc3cccc(Cl)n3n2)nc1 (stereo not shown)
72 | 1 to 5 µM | Clc1cccc2cc(C3c4nc[nH]c4CCN3c3nnc(C4CCC4)o3)nn12 (stereo not shown)
73 | 1 to 5 µM | Fc1cccc2cc(C3c4nc[nH]c4CCN3c3nnc(C(F)(F)F)o3)nn12 (stereo not shown)
74 | 1 to 5 µM | Cc1cccc2cc(C3c4nc[nH]c4CCN3c3ncc(N)cn3)nn12 (stereo not shown)
75 | 1 to 5 µM | c1cnc(-c2nnc(N3CCc4[nH]cnc4C3c3cc4ccccn4n3)o2)nc1 (stereo not shown)
76 | 1 to 5 µM | c1ccn2nc(C3c4nc[nH]c4CCN3c3nnc(-c4cnccn4)o3)cc2c1 (stereo not shown)
77 | 1 to 5 µM | Fc1cccc2cc(C3c4nc[nH]c4CCN3c3nnc(C(F)F)o3)nn12 (stereo not shown)
78 | 1 to 5 µM | Fc1cccn2nc(C3c4nc[nH]c4CCN3c3nnc(C4CCC4)o3)cc12 (stereo not shown)
79 | 1 to 5 µM | FC(F)c1cccc2cc(C3c4nc[nH]c4CCN3c3nnc(C4CCC4)o3)nn12 (stereo not shown)
80 | 1 to 5 µM | FC(F)(F)c1cccc2cc(C3c4nc[nH]c4CCN3c3nnc(C4CCC4)o3)nn12 (stereo not shown)
81 | 1 to 5 µM | CC(C)(C)c1nnc(N2CCc3[nH]cnc3C2c2cc3c(C(F)(F)F)cccn3n2)o1 (stereo not shown)
82 | > 5 µM | CC(C)(C)c1nnc(N2CCc3[nH]cnc3C2c2cc3c(F)cccn3n2)o1 (stereo not shown)
83 | > 5 µM | CC(C)(C)c1nnc(N2CCc3[nH]cnc3C2c2cc3cccc(C(F)F)n3n2)o1 (stereo not shown)
84 | > 5 µM | CC(C)(C)c1nnc(N2CCc3[nH]cnc3C2c2cc3cccc(C(F)(F)F)n3n2)o1 (stereo not shown)
85 | > 5 µM | CC(C)(C)c1nnc(N2CCc3[nH]cnc3C2c2cc3cccc(Cl)n3n2)o1 (stereo not shown)
86 | 1 to 5 µM | Cc1cccc2cc(C3c4nc[nH]c4CCN3c3nnc(C(C)(C)C)o3)nn12 (stereo not shown)
87 | 1 to 5 µM | CC(C)(C)c1nnc(N2CCc3[nH]cnc3C2c2cc3ccccn3n2)o1 (stereo not shown)
88 | 1 to 5 µM | c1cnnc(-c2nnc(N3CCc4[nH]cnc4C3c3cc4ccccn4n3)o2)c1 (stereo not shown)
89 | 1 to 5 µM | c1cncc(-c2nnc(N3CCc4[nH]cnc4C3c3cc4ccccn4n3)o2)c1 (stereo not shown) [listing 2 of 2 here]
90 | 1 to 5 µM | c1ccn2nc(C3c4nc[nH]c4CCN3c3nnc(-c4ccncn4)o3)cc2c1 (stereo not shown) [listing 2 of 2 here]
91 | 1 to 5 µM | Cc1ccc2c(C(=O)N3CCc4[nH]cnc4C3c3cc4cccc(Cl)n4n3)cnn2c1 (stereo not shown) [listing 2 of 2 here]
